This is an account of results in ChEMBL document CHEMBL3046560, “Steroidal saponins from the leaves of Yucca de-smetiana and their in vitro antitumor activity: structure activity relationships through a molecular modeling approach” (Med Chem Res, 2013).

The subject of assay [1] is HepG2. As to the kind of experiment: Antitumor activity against Homo sapiens (human) HepG2 cells assessed as cell growth inhibition after 48 hr by MTT assay. Type of assay: functional, cell-based. On the technique in general: Formazan colour is commonly taken as a measure of viable cells.
The next assay deals with HCT-116. As to the kind of experiment: Antitumor activity against Homo sapiens (human) HCT116 cells assessed as cell growth inhibition after 48 hr by MTT assay. Type of assay: functional, cell-based.
Assay [2] has as its system MCF7. Put plainly: Antitumor activity against Homo sapiens (human) MCF7 cells assessed as cell growth inhibition after 48 hr by MTT assay. Type of assay: functional, cell-based.
A further assay has as its system A549. As to the kind of experiment: Antitumor activity against Homo sapiens (human) A549 cells assessed as cell growth inhibition after 48 hr by MTT assay. Type of assay: functional, cell-based.
Assay [3] relates to HepG2. Put plainly: Ratio of doxorubicin IC50 to compound IC50 for Homo sapiens (human) HepG2 cells. Type of assay: functional.
For assay [4], the system named is MCF7. As to the kind of experiment: Ratio of doxorubicin IC50 to compound IC50 for Homo sapiens (human) MCF7 cells. Type of assay: functional.
Where [5] appears, read: Homo sapiens, HepG2, 48 h, read-out: IC50.
[6] abbreviates: Homo sapiens, HCT-116, 48 h, read-out: IC50.
[7] abbreviates: Homo sapiens, A549, 48 h, read-out: IC50.
[8] abbreviates: Homo sapiens, MCF7, 48 h, read-out: IC50.

On to `CO[C@]1(CC[C@H](C)CO[C@@H]2O[C@H](CO)[C@@H](O)[C@H](O)[C@H]2O)O[C@H]2C[C@H]3[C@@H]4CC[C@@H]5C[C@@H](O[C@@H]6O[C@H](CO)[C@@H](O)[C@H](O)[C@H]6O[C@@H]6O[C@H](CO)[C@H](O)[C@H](O)[C@H]6O)CC[C@]5(C)[C@H]4CC[C@]3(C)[C@H]2[C@@H]1C`, for which the IC50 result in the assay with HepG2 [1] (hepg2), with HCT-116 (hct-116), in the assay with MCF7 [2] (mcf7) and with A549 (a549) was “Not Active” each time.
On to `COc1cccc2c1C(=O)c1c(O)c3c(c(O)c1C2=O)C[C@@](O)(C(=O)CO)C[C@@H]3O[C@H]1C[C@H](N)[C@H](O)[C@H](C)O1` [DOXORUBICIN], for which the IC50 came to 7.36 µM in the assay with HepG2 [1] (setting [5]), 6.86 µM in the assay on HCT-116 (setting [6]) and 0.84 µM with A549 (setting [7]).
In the case of `C[C@@H]1CC[C@@]2(OC1)O[C@H]1C[C@H]3[C@@H]4CC[C@@H]5C[C@@H](O[C@@H]6O[C@H](CO)[C@@H](O)[C@H](O)[C@H]6O[C@@H]6O[C@H](CO)[C@H](O)[C@H](O)[C@H]6O)CC[C@]5(C)[C@H]4CC[C@]3(C)[C@H]1[C@@H]2C`, the “growth inhibition (GI)” value in the assay with HepG2 [1], in the assay on HCT-116, in the assay on MCF7 [2] and in the assay on A549 was “Dose-dependent effect” each time. The IC50 in the assay on HepG2 [1] (setting [5]) was determined as 3.5 µM; with HCT-116 (setting [6]) it was 4.4 µM; in the assay on MCF7 [2] (setting [8]) it was 4 µM; in the assay with A549 (setting [7]) it was 16.5 µM. The “Ratio IC50” value in the assay with HepG2 [3] came to 2.
`C[C@@H]1CC[C@@]2(OC1)O[C@H]1C[C@H]3[C@@H]4CC[C@@H]5C[C@@H](O[C@@H]6O[C@H](CO)[C@H](O[C@@H]7O[C@H](CO)[C@@H](O)[C@H](O[C@@H]8O[C@H](CO)[C@@H](O)[C@H](O)[C@H]8O)[C@H]7O[C@@H]7O[C@H](CO)[C@H](O)[C@H](O)[C@H]7O[C@@H]7OC[C@@H](O)[C@H](O)[C@H]7O)[C@H](O)[C@H]6O)CC[C@]5(C)[C@H]4CC[C@]3(C)[C@H]1[C@@H]2C` [Desmettianoside C]: the “growth inhibition (GI)” value in the assay with HepG2 [1], in the assay with HCT-116, with MCF7 [2] and with A549 was “Dose-dependent effect” throughout. In addition, the IC50 in the assay with HepG2 [1] (setting [5]) was 1.1 µM; in the assay on HCT-116 (setting [6]), 2.4 µM; in the assay on MCF7 [2] (setting [8]) it was 2.6 µM; in the assay on A549 (setting [7]), 10.2 µM. The “Ratio IC50” value in the assay with MCF7 [4] is listed as 2.
On to `C[C@@H](CC[C@@]1(O)O[C@H]2C[C@H]3[C@@H]4CC[C@@H]5C[C@@H](O[C@@H]6O[C@H](CO)[C@@H](O)[C@H](O)[C@H]6O[C@@H]6O[C@H](CO)[C@H](O)[C@H](O)[C@H]6O)CC[C@]5(C)[C@H]4CC[C@]3(C)[C@H]2[C@@H]1C)CO[C@@H]1O[C@H](CO)[C@@H](O)[C@H](O)[C@H]1O`, for which the IC50 result with HepG2 [1] (hepg2), in the assay with HCT-116 (hct-116), with MCF7 [2] (mcf7) and in the assay on A549 (a549) was “Not Active” each time.

The term IC50 denotes the concentration that gives 50% inhibition.
